Test results reported in ChEMBL document CHEMBL1133344, “SAR studies of 2-o-substituted-benzoyl- and 2-alkanoyl-cyclohexane-1,3-diones as inhibitors of 4-hydroxyphenylpyruvate dioxygenase” (Bioorg Med Chem Lett, 2000).

Target: T1, 4-hydroxyphenylpyruvate dioxygenase (Sus scrofa, UniProt Q02110)
Test: Inhibition of 4-hydroxyphenylpyruvate dioxygenase of purified pig liver by enol-borate method

T1 sequence (Q02110 whole entry): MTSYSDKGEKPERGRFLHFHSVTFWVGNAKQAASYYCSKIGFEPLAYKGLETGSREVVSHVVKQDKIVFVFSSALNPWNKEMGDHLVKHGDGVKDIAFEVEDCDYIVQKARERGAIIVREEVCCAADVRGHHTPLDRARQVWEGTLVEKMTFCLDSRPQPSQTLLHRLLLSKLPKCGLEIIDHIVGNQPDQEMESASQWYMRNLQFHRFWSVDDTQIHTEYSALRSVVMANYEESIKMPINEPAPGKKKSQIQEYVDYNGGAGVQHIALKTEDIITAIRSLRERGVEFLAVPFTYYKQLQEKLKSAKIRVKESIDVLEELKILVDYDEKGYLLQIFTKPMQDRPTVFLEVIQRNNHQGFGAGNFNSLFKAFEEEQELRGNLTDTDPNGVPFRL

Compound | IC50 [µM]
O=C1CCCC(=O)C1C(=O)c1ccc(C(F)(F)F)cc1[N+](=O)[O-] [NITISINONE] | 0.04
COc1ccccc1C(=O)C1C(=O)CCCC1=O | 11.7
O=C1CCCC(=O)C1C(=O)c1ccccc1Br | 0.56
CCC(=O)C1C(=O)CCCC1=O | 17.8
O=C1CCCC(=O)C1C(=O)c1ccccc1I | 0.76
O=C1CCCC(=O)C1C(=O)c1ccccc1[N+](=O)[O-] | 0.16
O=C1CCCC(=O)C1C(=O)c1ccccc1C(F)(F)F | 0.25
Cc1ccccc1C(=O)C1C(=O)CCCC1=O | 3.75
O=C1CCCC(=O)C1C(=O)C1CC1 | 6

More lines, now with the values ahead:

IC50 [µM] | Compound
11.2 | CC(=O)C1C(=O)CCCC1=O
0.5 | O=C1CCCC(=O)C1C(=O)c1ccccc1Cl
365 | O=C1CCCC(=O)C1C(=O)C1CCCCC1
93.3 | CC(C)C(=O)C1C(=O)CCCC1=O

Target: T1, 4-hydroxyphenylpyruvate dioxygenase
Test: In vitro inhibition of 4-hydroxyphenylpyruvate dioxygenase obtained from purified pig liver by enol-borate method

IC50 [µM] | Compound
11.2 | O=C1CCCC(=O)C1C(=O)c1ccccc1
